# Data reported in patent publication EP0640606B1, “Thienopyrimidine derivatives, their production and use” (TAKEDA CHEMICAL INDUSTRIES, LTD., priority 1993, dated 1995).
# Key:
# [1] = target: T1, Endothelin-B Receptor (Bos taurus, UniProt P28088); experiment: Endothelin Receptor Assay, [125I]endothelin-1 binding to bovine cerebral membrane fraction; conditions: 25°C for 60 minutes, concentration wherein PMB was 50%
# T1 construct: a bovine cerebral membrane fraction for an endothelin-B receptor assay; from tissue; host or cells: bovine cerebral membrane fraction
# T1 sequence (P28088 27-441): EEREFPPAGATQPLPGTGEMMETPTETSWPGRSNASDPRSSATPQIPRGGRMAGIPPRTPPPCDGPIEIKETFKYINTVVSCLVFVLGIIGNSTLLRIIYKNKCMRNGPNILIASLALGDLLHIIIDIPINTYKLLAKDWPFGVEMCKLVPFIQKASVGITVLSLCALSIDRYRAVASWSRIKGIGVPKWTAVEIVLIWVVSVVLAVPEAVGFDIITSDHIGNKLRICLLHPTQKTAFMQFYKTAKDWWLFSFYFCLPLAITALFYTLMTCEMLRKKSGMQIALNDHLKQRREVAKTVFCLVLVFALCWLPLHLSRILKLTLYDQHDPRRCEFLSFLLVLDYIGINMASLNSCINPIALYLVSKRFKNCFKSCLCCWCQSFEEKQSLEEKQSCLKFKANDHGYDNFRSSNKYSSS
# Protocol: (§1) A pig ventricular muscle membrane fraction for an endothelin-A receptor assay and a bovine cerebral membrane fraction for an endothelin-B receptor assay were diluted with an assay buffer [comprising 20 mM of Tris-HCl, 2 mM of EGTA (ethylene glycol bis(2-aminoethyl ether)tetraacetic acid), 5 mM of magnesium acetate, 0.1% of BSA (bovine serum albumin), 0.03% of NaN3, 0.5 mM of PMSF (phenylmethylsulfonyl fluoride), 20 micrograms/ml of leupeptin, 4 micrograms/ml of E-64 (manufactured by the Peptide Institute, Japan) and 1 microgram/ml of pepstatin; pH 7.2] to 12 µg/ml and 180 µg/ml, respectively.
# (§2) To each 100 microliter of them was added 5 nM [^125I] endothelin-1 (2 microliters). A solution (3 microliters) of the sample was added and the mixture was incubated at 25°C for 60 minutes. In order to measure the maximum binding (B0) and the nonspecific bonding (NSB), a lot to which dimethyl sulfoxide (3 microliters) or a solution (3 microliters) of 10^-5M of endothelin in dimethyl sulfoxide was added was incubated as well. […] The radioactivity of the filter was counted by a γ -counter and a calculation was conducted in accordance with the following formula (1) whereby a percent maximum binding (hereinafter, referred to as PMB) was determined. […]
# [2] = target: T2, Endothelin-A Receptor (Sus scrofa, UniProt Q29010); experiment: Endothelin Receptor Assay, [125I]endothelin-1 binding to pig ventricular muscle membrane fraction; conditions: 25°C for 60 minutes, concentration wherein PMB was 50%, read-out: IC50 Endothelin-A Receptor (pigs)
# T2 construct: A pig ventricular muscle membrane fraction for an endothelin-A receptor assay; from tissue; host or cells: pig ventricular muscle membrane fraction
# T2 sequence (Q29010 21-427): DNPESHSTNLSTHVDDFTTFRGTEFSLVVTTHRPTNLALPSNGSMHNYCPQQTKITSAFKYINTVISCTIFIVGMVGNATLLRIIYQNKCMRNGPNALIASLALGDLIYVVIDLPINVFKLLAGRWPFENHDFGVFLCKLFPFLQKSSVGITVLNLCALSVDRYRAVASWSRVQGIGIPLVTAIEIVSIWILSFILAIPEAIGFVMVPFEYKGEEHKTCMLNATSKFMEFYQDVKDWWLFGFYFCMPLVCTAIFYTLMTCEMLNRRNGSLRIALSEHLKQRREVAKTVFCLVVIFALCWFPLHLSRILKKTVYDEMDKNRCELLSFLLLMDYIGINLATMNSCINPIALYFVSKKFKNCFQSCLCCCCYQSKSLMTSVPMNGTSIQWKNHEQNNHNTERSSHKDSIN
# Protocol: as §1, §2
# [3] = target: T3, Endothelin-A Receptor (Homo sapiens, UniProt P25101); experiment: Endothelin Assay Test, [125I]endothelin-1 binding to insect cell (Sf9) membrane fraction expressing human ETA receptor; conditions: human ETA receptor expressed, 25°C for 60 minutes, PMB = 50%, read-out: IC 50 Endothelin-A Receptor (human)
# T3 construct: expressed in transfected cells; host or cells: Sf9 insect cells (membrane fraction)
# T3 sequence (P25101 21-427): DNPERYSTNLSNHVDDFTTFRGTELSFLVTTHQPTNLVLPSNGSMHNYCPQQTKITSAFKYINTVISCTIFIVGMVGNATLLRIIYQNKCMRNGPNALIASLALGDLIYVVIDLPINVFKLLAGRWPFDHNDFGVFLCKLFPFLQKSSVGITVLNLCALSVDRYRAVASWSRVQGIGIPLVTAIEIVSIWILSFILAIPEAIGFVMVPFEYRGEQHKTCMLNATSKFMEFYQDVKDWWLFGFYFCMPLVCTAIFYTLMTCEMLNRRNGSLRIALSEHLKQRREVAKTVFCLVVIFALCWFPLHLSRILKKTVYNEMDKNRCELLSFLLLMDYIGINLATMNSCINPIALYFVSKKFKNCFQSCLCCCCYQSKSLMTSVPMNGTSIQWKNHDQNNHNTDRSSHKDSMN
# Protocol: (§3) Endothelin (ET) receptors were prepared as follows. An insect cell (Sf9) membrane fraction wherein human endothelin-A (ETA) was expressed and that wherein endothelin-B (ETB) was expressed were diluted with an assay buffer [comprising 20 mM of Tris-HCl, 2 mM of EGTA (ethylene glycol bis(2-aminoethyl ether)tetraacetic acid), 5 mM of magnesium acetate, 0.1% of BSA (bovine serum albumin), 0.03% of NaN3, 0.5 mM of PMSF (phenylmethylsulfonyl fluoride), 20 micrograms/ml of leupeptin, 4 micrograms/ml of E-64 (manufactured by the Peptide Institute, Japan) and 1 microgram/ml of pepstatin; pH 7.2] to make 1.4 micrograms/ml and 0.7 microgram/ml for the insect cell (Sf 9) membrane fraction wherein a human ETA receptor was expressed and for that wherein a human ETB receptor was expressed, respectively. Each 100 microliters of them were taken out and 2 microliters of 5nM [^125I]endothelin-1 was added thereto. A dimethyl sulfoxide solution (3 microliters) of the sample was added thereto and the mixture was incubated at 25°C for 60 minutes. Further, in order to measure the maximum binding (B0) and the nonspecific binding (NSB), a lot to which […] or […] of 10^-5M of endothelin-1 in dimethyl sulfoxide was added was incubated as well. An assay buffer suspended with 0.05% CHAPS (3-[(3-cholamidopropyl)di-methylammonio]-1-propanesulfonate, 1.5 ml) was added and the mixture was filtered through a GF/F glass fiber filter (trade name of Whatman, England) followed by washing with 1.5 ml of the same buffer.
# (§4) The radioactivity of the filter was counted by a γ -counter and determined PMB by the same way described in Test Example 1. The value wherein PMB = 50% was calculated and expressed as an IC50.
# [4] = target: T4, Endothelin-B Receptor (Homo sapiens, UniProt P24530); experiment: Endothelin Assay Test, [125I]endothelin-1 binding to insect cell (Sf9) membrane fraction expressing human ETB receptor; conditions: human ETB receptor expressed, 25°C for 60 minutes, PMB = 50%, read-out: IC 50 Endothelin-B Receptor (human)
# T4 construct: expressed in transfected cells; host or cells: Sf9 insect cells (membrane fraction)
# T4 sequence (P24530 27-442): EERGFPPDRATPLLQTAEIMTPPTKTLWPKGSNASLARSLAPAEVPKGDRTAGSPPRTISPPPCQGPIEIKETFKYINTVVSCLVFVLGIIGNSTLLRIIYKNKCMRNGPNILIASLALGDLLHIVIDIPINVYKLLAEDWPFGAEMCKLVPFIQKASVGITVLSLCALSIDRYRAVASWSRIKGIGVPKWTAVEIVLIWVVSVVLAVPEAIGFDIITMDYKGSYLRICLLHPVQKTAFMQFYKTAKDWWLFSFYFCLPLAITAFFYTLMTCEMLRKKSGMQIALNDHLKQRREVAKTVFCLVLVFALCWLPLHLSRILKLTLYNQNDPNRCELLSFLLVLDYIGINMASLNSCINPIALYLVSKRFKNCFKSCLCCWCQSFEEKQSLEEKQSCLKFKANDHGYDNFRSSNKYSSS
# Protocol: as §3, §4
IC50 [1],IC50 [2],IC50 [3],IC50 [4],Compound
39 µM,12 µM,–,–,COc1cccc(Cn2c(=O)n(CC(=O)O)c(=O)c3cc(-c4ccccc4)sc32)c1 [Compound 99]
7.5 µM,1.3 µM,–,–,COc1ccccc1Cn1c(=O)n(CC(=O)O)c(=O)c2c(C)c(-c3ccccc3)sc21 [Compound 102]
–,–,1.9 µM,12 µM,COc1ccc(-c2sc3c(c2C)c(=O)n(CC(=O)O)c(=O)n3Cc2ccccc2OC)cc1 [Compound 105]
–,–,1.8 µM,14 µM,COc1ccc(-c2sc3c(c2C)c(=O)n(CC(=O)O)c(=O)n3Cc2ccccc2C)cc1 [Compound 111]
–,–,0.71 µM,6.8 µM,"COc1ccc(-c2sc3c(c2C)c(=O)n(CC(=O)O)c(=O)n3Cc2ccccc2SC)cc1 [Compound 115, 2,4(1H,3H)-dioxo-5-methyl-6-(4-methoxyphenyl)-1-(2-methylthiobenzyl)thieno[2,3-d]pyrimidine-3-acetic acid]"
–,–,2.9 µM,26 µM,COc1ccc(-c2sc3c(c2C)c(=O)n(CC(=O)O)c(=O)n3Cc2cc(OC)ccc2OC)cc1 [Compound 125]
–,–,1.2 µM,12 µM,COc1ccccc1Cn1c(=O)n(CC(=O)O)c(=O)c2c(C)c(-c3ccc(OCCO)cc3)sc21 [Compound 130]
–,–,0.3 µM,2.4 µM,"COCOc1ccc(-c2sc3c(c2C)c(=O)n(CC(=O)O)c(=O)n3Cc2ccccc2OC)cc1 [Compound 131, 2,4(1H,3H)-dioxo-5-methyl-6-(4-methoxymethoxyphenyl)-1-(2-methoxybenzyl)thieno[2,3-d]pyrimidine-3-acetic acid]"
–,–,0.24 µM,15 µM,"COc1ccccc1Cn1c(=O)n(CC(=O)O)c(=O)c2c(C)c(-c3ccc(OCSC)cc3)sc21 [Compound 140, 2,4(1H,3H)-dioxo-5-methyl-6-(4-methylthiomethoxyphenyl)-1-(2-methoxybenzyl)thieno[2,3-d]pyrimidine-3-acetic acid]"
–,–,2.5 µM,33 µM,COc1ccccc1Cn1c(=O)n(CC(=O)O)c(=O)c2c(C)c(-c3ccc(OCC(N)=O)cc3)sc21 [Compound 143]
–,–,0.085 µM,0.92 µM,"COCOc1ccc(-c2sc3c(c2C)c(=O)n(CC(=O)O)c(=O)n3Cc2ccccc2SC)cc1 [Compound 144, 2,4(1H,3H)-dioxo-5-methyl-6-(4-methoxymethoxyphenyl)-1-(2-methylthiobenzyl)thieno[2,3-d]pyrimidine-3-acetic acid]"
–,–,0.066 µM,0.66 µM,"CSCOc1ccc(-c2sc3c(c2C)c(=O)n(CC(=O)O)c(=O)n3Cc2ccccc2SC)cc1 [Compound 145, 2,4(1H,3H)-dioxo-5-methyl-6-(4-methylthiomethoxyphenyl)-1-(2-methylthiobenzyl)thieno[2,3-d]pyrimidine-3-acetic acid]"
–,–,0.25 µM,2.6 µM,"CCCOc1ccc(-c2sc3c(c2C)c(=O)n(CC(=O)O)c(=O)n3Cc2ccccc2SC)cc1 [Compound 146, 2,4(1H,3H)-dioxo-5-methyl-1-(2-methylthiobenzyl)-6-(4-propoxyphenyl)thieno[2,3-d]pyrimidine-3-acetic acid]"
–,–,0.4 µM,7.1 µM,"CSc1ccccc1Cn1c(=O)n(CC(=O)O)c(=O)c2c(C)c(-c3ccc(OCC(C)=O)cc3)sc21 [Compound 148, 2,4(1H,3H)-dioxo-5-methyl-1-(2-methylthiobenzyl)-6-[4-(2-oxopropoxy)phenyl]thieno[2,3-d]pyrimidine-3-acetic acid]"
–,–,2.6 µM,16 µM,CSc1ccccc1Cn1c(=O)n(CC(=O)O)c(=O)c2c(C)c(-c3ccc4c(c3)OCO4)sc21 [Compound 156]
–,–,2.1 µM,2.5 µM,"CSc1ccccc1Cn1c(=O)n(CC(=O)O)c(=O)c2c(C)c(-c3ccc(-n4cccc4)cc3)sc21 [Compound 173, 2,4(1H,3H)-dioxo-1-(2-methylthiobenzyl)-6-[4-(1-pyrrolyl)phenyl]-5-methylthieno[2,3-d]pyrimidine-3-acetic acid]"
